Experimental data taken from patent US9611267B2, “Substituted tricyclic compounds as FGFR inhibitors” (Incyte Corporation, priority 2012, dated 2017).

How the values were obtained:
Assay type in all cases: biochemical
[1] = target: FGFR3 (Homo sapiens (Human), UniProt P22607); assay: FGFR enzymatic assay (FRET peptide phosphorylation), FGFR3; conditions: FGFR3 enzyme (Millipore), ATP 140 μM
Summary of the method: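 After 5-10 min pre-incubation of FGFR3 with serially diluted compound in pH 7.5 HEPES/MgCl2/EGTA/DTT buffer, the reaction proceeded 1 hr at 25° C. Phosphorylated peptide was detected by FRET, and IC50 was fitted with a variable-slope sigmoid.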

[2] = target: FGFR1 (Homo sapiens (Human), UniProt P11362); assay: FGFR enzymatic assay (FRET peptide phosphorylation), FGFR1; conditions: FGFR1 enzyme 0.02 nM, ATP 210 μM
Chain of FGFR1 (P11362 22-822): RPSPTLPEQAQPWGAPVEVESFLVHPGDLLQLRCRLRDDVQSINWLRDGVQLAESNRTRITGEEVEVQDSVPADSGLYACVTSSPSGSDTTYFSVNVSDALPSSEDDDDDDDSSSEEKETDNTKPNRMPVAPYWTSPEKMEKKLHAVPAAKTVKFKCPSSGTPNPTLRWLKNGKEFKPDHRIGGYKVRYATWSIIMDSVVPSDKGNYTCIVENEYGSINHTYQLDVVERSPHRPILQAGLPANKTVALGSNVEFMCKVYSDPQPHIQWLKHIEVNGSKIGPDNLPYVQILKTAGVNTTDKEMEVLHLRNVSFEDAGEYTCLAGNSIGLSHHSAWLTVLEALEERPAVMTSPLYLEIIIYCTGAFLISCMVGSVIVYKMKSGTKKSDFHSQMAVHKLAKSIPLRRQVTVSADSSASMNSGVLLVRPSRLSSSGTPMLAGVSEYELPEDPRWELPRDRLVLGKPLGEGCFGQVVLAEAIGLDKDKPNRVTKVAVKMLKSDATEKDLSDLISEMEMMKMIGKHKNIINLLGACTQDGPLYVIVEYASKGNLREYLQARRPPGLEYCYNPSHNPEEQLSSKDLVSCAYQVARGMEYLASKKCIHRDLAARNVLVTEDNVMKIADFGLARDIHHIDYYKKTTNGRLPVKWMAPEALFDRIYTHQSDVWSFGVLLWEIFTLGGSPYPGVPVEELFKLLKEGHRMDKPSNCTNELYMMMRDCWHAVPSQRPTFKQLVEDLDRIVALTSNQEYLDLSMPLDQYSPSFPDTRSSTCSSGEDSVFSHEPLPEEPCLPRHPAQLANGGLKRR
Summary of the method: (§1)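 IC50 values were obtained from variable-slope sigmoidal dose-response fitting of a FRET read-out of peptide phosphorylation. The buffer, described for FGFR3, was 50 mM HEPES pH 7.5 with MgCl2, EGTA, Tween-20 and DTT.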

[3] = target: FGFR2 (Homo sapiens (Human), UniProt P21802); assay: FGFR enzymatic assay (FRET peptide phosphorylation), FGFR2; conditions: FGFR2 enzyme 0.01 nM, ATP 100 μM
Chain of FGFR2 (P21802 22-821): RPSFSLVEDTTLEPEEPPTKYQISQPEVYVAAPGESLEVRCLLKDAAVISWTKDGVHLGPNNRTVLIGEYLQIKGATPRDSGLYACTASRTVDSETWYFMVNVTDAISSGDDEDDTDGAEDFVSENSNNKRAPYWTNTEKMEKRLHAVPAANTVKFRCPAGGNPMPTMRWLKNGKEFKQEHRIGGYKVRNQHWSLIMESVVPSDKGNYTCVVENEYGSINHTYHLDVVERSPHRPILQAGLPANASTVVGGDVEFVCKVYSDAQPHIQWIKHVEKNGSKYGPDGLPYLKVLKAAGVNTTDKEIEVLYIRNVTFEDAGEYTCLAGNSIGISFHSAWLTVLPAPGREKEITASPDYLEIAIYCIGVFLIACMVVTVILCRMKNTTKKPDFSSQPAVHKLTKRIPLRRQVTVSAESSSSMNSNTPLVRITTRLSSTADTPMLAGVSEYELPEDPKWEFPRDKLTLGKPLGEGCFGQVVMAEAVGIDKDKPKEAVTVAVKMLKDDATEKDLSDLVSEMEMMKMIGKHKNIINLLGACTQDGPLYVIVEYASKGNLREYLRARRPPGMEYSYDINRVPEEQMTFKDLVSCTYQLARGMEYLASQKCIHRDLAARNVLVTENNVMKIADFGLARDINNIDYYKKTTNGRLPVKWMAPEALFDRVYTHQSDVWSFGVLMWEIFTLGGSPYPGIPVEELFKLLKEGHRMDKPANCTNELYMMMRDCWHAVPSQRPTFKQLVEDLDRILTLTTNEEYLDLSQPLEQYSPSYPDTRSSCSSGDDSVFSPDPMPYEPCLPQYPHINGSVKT
Summary of the method: as §1

Measured: IC50

Chain of FGFR3 (P22607 23-806): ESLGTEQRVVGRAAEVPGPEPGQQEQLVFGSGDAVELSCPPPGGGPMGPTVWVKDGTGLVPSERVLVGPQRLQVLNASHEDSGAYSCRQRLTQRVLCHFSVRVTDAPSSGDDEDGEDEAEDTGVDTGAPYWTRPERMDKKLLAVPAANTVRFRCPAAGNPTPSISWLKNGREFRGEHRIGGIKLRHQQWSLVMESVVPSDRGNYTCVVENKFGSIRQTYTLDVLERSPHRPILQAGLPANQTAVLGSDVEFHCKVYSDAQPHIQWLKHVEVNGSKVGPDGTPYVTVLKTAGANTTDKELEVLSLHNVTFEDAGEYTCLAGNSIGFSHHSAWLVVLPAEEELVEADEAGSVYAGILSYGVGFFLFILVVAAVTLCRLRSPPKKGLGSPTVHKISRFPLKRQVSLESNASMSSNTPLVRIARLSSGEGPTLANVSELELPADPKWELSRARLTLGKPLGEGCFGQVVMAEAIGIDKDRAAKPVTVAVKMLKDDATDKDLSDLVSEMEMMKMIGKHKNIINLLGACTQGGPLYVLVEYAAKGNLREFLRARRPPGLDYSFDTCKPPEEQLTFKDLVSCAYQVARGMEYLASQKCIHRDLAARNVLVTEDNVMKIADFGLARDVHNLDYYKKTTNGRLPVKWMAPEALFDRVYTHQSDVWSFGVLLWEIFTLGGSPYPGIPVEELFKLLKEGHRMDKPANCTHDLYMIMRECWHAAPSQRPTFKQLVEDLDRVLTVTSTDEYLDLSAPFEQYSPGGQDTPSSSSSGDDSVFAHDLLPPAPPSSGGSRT

COc1cc(OC)c(F)c(N2Cc3cnc4[nH]c(CN5CCN(C)CC5)cc4c3N(c3cccc(F)c3)C2=O)c1F [Example 213, 3-(2,6-difluoro-3,5-dimethoxyphenyl)-1-(3-fluorophenyl)-8-[(4-methylpiperazin-1-yl)methyl]-1,3,4,7-tetrahydro-2H-pyrrolo[3′,2′:5,6]pyrido[4,3-d]pyrimidin-2-one]
< 100 nM: all assays above

COc1cc(OC)c(F)c(N2Cc3cnc4[nH]nc(-c5cnn(C)c5)c4c3N(C)C2=O)c1F [Example 215, 3-(2,6-difluoro-3,5-dimethoxyphenyl)-1-methyl-9-(1-methyl-1H-pyrazol-4-yl)-1,3,4,7-tetrahydro-2H-pyrazolo[4′,3′:5,6]pyrido[4,3-d]pyrimidin-2-one]
< 100 nM: all assays above

COc1cc(OC)c(F)c(N2Cc3cnc4[nH]ncc4c3N(Cc3cccc(F)n3)C2=O)c1F [Example 216, 3-(2,6-difluoro-3,5-dimethoxyphenyl)-1-[(6-fluoropyridin-2-yl)methyl]-1,3,4,7-tetrahydro-2H-pyrazolo[4′,3′:5,6]pyrido[4,3-d]pyrimidin-2-one]
< 100 nM: all assays above

COc1cc(OC)c(F)c(N2Cc3cnc4[nH]ncc4c3N(Cc3cccc(C)n3)C2=O)c1F [Example 217, 3-(2,6-difluoro-3,5-dimethoxyphenyl)-1-[(6-methylpyridin-2-yl)methyl]-1,3,4,7-tetrahydro-2H-pyrazolo[4′,3′:5,6]pyrido[4,3-d]pyrimidin-2-one]
< 100 nM: all assays above

COc1cc(OC)c(F)c(N2Cc3cnc4[nH]ncc4c3N(c3ncccc3F)C2=O)c1F [Example 218, 3-(2,6-Difluoro-3,5-dimethoxyphenyl)-1-(3-fluoropyridin-2-yl)-1,3,4,7-tetrahydro-2H-pyrazolo[4′,3′:5,6]pyrido[4,3-d]pyrimidin-2-one]
< 100 nM: all assays above

CCN1C(=O)N(c2c(F)c(OC)cc(OC)c2F)Cc2cnc3[nH]c(Cn4ccccc4=O)cc3c21 [Example 219, 3-(2,6-difluoro-3,5-dimethoxyphenyl)-1-ethyl-8-[(2-oxopyridin-1(2H)-yl)methyl]-1,3,4,7-tetrahydro-2H-pyrrolo[3′,2′:5,6]pyrido[4,3-d]pyrimidin-2-one]
< 100 nM: all assays above

CCN1C(=O)N(c2c(F)c(OC)cc(OC)c2F)Cc2cnc3[nH]c(COc4cccnc4)cc3c21 [Example 220, 3-(2,6-difluoro-3,5-dimethoxyphenyl)-1-ethyl-8-[(pyridin-3-yloxy)methyl]-1,3,4,7-tetrahydro-2H-pyrrolo[3′,2′:5,6]pyrido[4,3-d]pyrimidin-2-one]
< 100 nM: all assays above

COc1cc(OC)c(F)c(N2Cc3cnc4[nH]c(CN5CCOCC5)cc4c3N(CCO)C2=O)c1F [Example 221, 3-(2,6-difluoro-3,5-dimethoxyphenyl)-1-(2-hydroxyethyl)-8-(morpholin-4-ylmethyl)-1,3,4,7-tetrahydro-2H-pyrrolo[3′,2′:5,6]pyrido[4,3-d]pyrimidin-2-one]
< 100 nM: all assays above

COc1cc(OC)c(F)c(N2Cc3cnc4[nH]c(CCN5CCOCC5)cc4c3N(c3cccc(F)c3F)C2=O)c1F [Example 222, 3-(2,6-difluoro-3,5-dimethoxyphenyl)-1-(2,3-difluorophenyl)-8-(2-morpholin-4-ylethyl)-1,3,4,7-tetrahydro-2H-pyrrolo[3′,2′:5,6]pyrido[4,3-d]pyrimidin-2-one]
< 100 nM: all assays above

COc1cc(OC)c(F)c(N2Cc3cnc4[nH]c(CCN5CCN(C)CC5)cc4c3N(c3cccc(F)c3F)C2=O)c1F [Example 223, 3-(2,6-difluoro-3,5-dimethoxyphenyl)-1-(2,3-difluorophenyl)-8-[2-(4-methylpiperazin-1-yl)ethyl]-1,3,4,7-tetrahydro-2H-pyrrolo[3′,2′:5,6]pyrido[4,3-d]pyrimidin-2-one]
< 100 nM: all assays above

CCN1CCN(CCc2cc3c4c(cnc3[nH]2)CN(c2c(F)c(OC)cc(OC)c2F)C(=O)N4c2cccc(F)c2F)CC1 [Example 224, 3-(2,6-difluoro-3,5-dimethoxyphenyl)-1-(2,3-difluorophenyl)-8-[2-(4-ethylpiperazin-1-yl)ethyl]-1,3,4,7-tetrahydro-2H-pyrrolo[3′,2′:5,6]pyrido[4,3-d]pyrimidin-2-one]
< 100 nM: all assays above

COc1cc(OC)c(F)c(N2Cc3cnc4[nH]c(CCN5CCOCC5)cc4c3N(c3ccc(F)cc3)C2=O)c1F [Example 225, 3-(2,6-difluoro-3,5-dimethoxyphenyl)-1-(4-fluorophenyl)-8-(2-morpholin-4-ylethyl)-1,3,4,7-tetrahydro-2H-pyrrolo[3′,2′:5,6]pyrido[4,3-d]pyrimidin-2-one]
< 100 nM: all assays above

COc1cc(OC)c(F)c(N2Cc3cnc4[nH]c(CCN5CCN(C)CC5)cc4c3N(c3ccc(F)cc3)C2=O)c1F [Example 226, 3-(2,6-difluoro-3,5-dimethoxyphenyl)-1-(4-fluorophenyl)-8-[2-(4-methylpiperazin-1-yl)ethyl]-1,3,4,7-tetrahydro-2H-pyrrolo[3′,2′:5,6]pyrido[4,3-d]pyrimidin-2-one]
< 100 nM: all assays above

COc1cc(OC)c(F)c(N2Cc3cnc4[nH]c(CCN5CCOCC5)cc4c3N(c3cccc(F)c3)C2=O)c1F [Example 227, 3-(2,6-difluoro-3,5-dimethoxyphenyl)-1-(3-fluorophenyl)-8-(2-morpholin-4-ylethyl)-1,3,4,7-tetrahydro-2H-pyrrolo[3′,2′:5,6]pyrido[4,3-d]pyrimidin-2-one]
< 100 nM: all assays above

COc1cc(OC)c(F)c(N2Cc3cnc4[nH]c(CCN5CCN(C)CC5)cc4c3N(c3cccc(F)c3)C2=O)c1F [Example 228, 3-(2,6-difluoro-3,5-dimethoxyphenyl)-1-(3-fluorophenyl)-8-[2-(4-methylpiperazin-1-yl)ethyl]-1,3,4,7-tetrahydro-2H-pyrrolo[3′,2′:5,6]pyrido[4,3-d]pyrimidin-2-one]
< 100 nM: all assays above

CCN1CCN(CCc2cc3c4c(cnc3[nH]2)CN(c2c(F)c(OC)cc(OC)c2F)C(=O)N4c2cccc(F)c2)CC1 [Example 229, 3-(2,6-difluoro-3,5-dimethoxyphenyl)-1-(3-fluorophenyl)-8-[2-(4-ethylpiperazin-1-yl)ethyl]-1,3,4,7-tetrahydro-2H-pyrrolo[3′,2′:5,6]pyrido[4,3-d]pyrimidin-2-one]
< 100 nM: all assays above
